Results published in patent US20220409526A1 (Retina Foundation Of The Southwest, priority 2019, published 2022).

Assays:
[1] = in vitro; format: cell-based, human; conditions: human
Experimental: (§1) ARPE-19 cells were grown in DMEM:F-12 supplemented with 10% fetal bovine serum (FBS). For all experiments these cells were split and grown in 6-well plates using MEM-Nic supplemented with 1% FBS according to a previously published procedure.^33 Cells used for all the experiments were between passages 25-30. For all experiments, the 96 well plates and 8-well slides were coated with 0.039 mg/mL collagen I at 6 μg/cm^2. The cells were seeded at a cell density of 70,000 cells/well and 150,000 cells/well using MEM-Nic media for 96 well plates and 8 well slides, respectively. Once the cells are confluent, media was replaced with MEM a, GlutaMAX™, supplemented with 1% FBS for 24 hours before carrying out assay protocols. Exposure to NAC alkyl-ester prodrugs were carried out in MEM a, GlutaMAX™, supplemented with 1% FBS and treatment with HQ was carried out in serum free DMEM:F-12.
(§2) ARPE-19 Cell viability assays were carried out using XTT/PMS reagent mixtures according to standard procedures known in the art (see Celis, J. E.; Carter, N., Cell Biology: A Laboratory Handbook. Elsevier Science: 2005). Corresponding absorbance readings were obtained using a plate reader at 450 and 660 nm.
(§3) A dose dependent study was first carried out for ARPE-19 cells using HQ concentrations varying from 100-1000 μM. Cells were then incubated at 37° C., 5% CO2 for 16 hours. HQ doses of less than 400 μM were non-lethal. Using 500 μM HQ for 16 hours gave a cell viability of ˜60%.
(§4) To evaluate the ability of the NAC alkyl-ester analogues to provide cellular protection against oxidative stress, cells were treated with 0.05 mM of NAC, NACME, NACEE, NACPE and NACBE for 2, 24 and 48 hours. Treated cells were then exposed to 500 μM HQ for 16 hours. HQ solutions were removed and replaced with DMEM:F-12 supplemented with 1% FBS, and followed by the addition of XTT (2,3-bis-(2-methoxy-4-nitro-5-sulfophenyl)-2H-tetrazolium-5-carboxanilide) and PMS (phenazine methyl sulfate).
(§5) To compare the effectiveness of NACBE and NAC in protecting against oxidative damage, another dose dependent study was carried out by varying the pretreatment concentration from 0.001 mM to 1.0 mM. […] Whereas for NAC, to reach the same cell viability, 0.5 mM concentration was needed (10× times that of NACBE).

[2] = test system: ARPE-19 cells; assay: in vitro; format: cell-based, human
Experimental: as §1, §2, §3, §4, §5

[3] = test system: ARPE-19 cells; assay: JC-1 assay (mitochondrial membrane potential); format: cell-based, human; conditions: 50 μM HQ for 4 hours, compared to the control
Experimental: JC-1 assays measuring the change in mitochondrial membrane potential were carried out to evaluate the protection of the NAC alkyl-ester analogues towards mitochondrial damage.
Typically, JC-1 dye has an inherent green fluorescence at 530 nm. Upon reaching the cell, due to the structural properties of the dye, it will accumulate in the mitochondria making aggregates known as J-aggregates. These J-aggregates consists of a red shifted fluorescence (590 nm). Damaged or unhealthy mitochondria, due to their depolarized membrane potential (compared to healthy ones), will have lesser amounts of aggregates and thus will have low intensity of red emission. Cells with healthy mitochondria will have a more prominent red fluorescence than that in cells with damaged/unhealthy mitochondria due to the ability in forming J-aggregates.
ARPE-19 cells were grown in black, clear bottom 96 well plates. […] With increasing time and dose of HQ, a drop in 590 nm/530 nm fluorescence is seen due to the depolarization of the mitochondria.
Next, to assess the effect of NAC alkyl-ester analogues on oxidative damage in mitochondria (FIG. 12B), ARPE-19 cells were pretreated with 1 mM NAC, NAC alkyl-ester analogues, NACA, GSH-EE and 1 μM MitoQ for 1 and 24 hours. […] The JC-1 solution was removed and washed once with PBS and fluorescence measurements were obtained in PBS at 485 nm excitation and emission at 535 nm and 590 nm. […]

[4] = test system: ARPE-19 cells; assay: CellTiter-Glo assay (ATP); format: cell-based, human
Experimental: ARPE-19 cells were grown in white 96 well plates. The cells were first exposed to 500 μM of HQ for 3, 6 and 8 hours and the amount of ATP produced was measured using the CellTiter-Glo assay kit to obtain a time dependent response (FIG. 15). […] Due to the mitochondrial damage caused by HQ, the production of ATP was decreased.

[5] = test system: mitochondrial DNA of ARPE-19 cells; assay: DNA fragmentation assay (long-extension PCR of mitochondrial DNA); format: cell-based, human
Experimental: Mitochondrial DNA damage has been linked to pathogenic diseases, including AMD. To determine if pretreatment of RPE cells with NAC alkyl-ester analogues could protect mitochondrial DNA against oxidative damage, a long-extension PCR based assay was used to measure amplification of a large stretch of mitochondrial DNA. The mitochondrial DNA damage assay was performed according to protocols known to those in the art (see Santos, J. H.; Mandavilli, B. S.; Van Houten, B., Measuring Oxidative mtDNA Damage and Repair Using Quantitative PCR. In Mitochondrial DNA: Methods and Protocols, Copeland, W. C., Ed. Humana Press: Totowa, N.J., 2002; pp 159-176). Briefly, ARPE-19 cells were grown to confluency in 6-well plates. The cells were treated with NAC alkyl-ester analogues for 24 hours, washed and then treated with 500 uM HQ for an additional 24 hours. DNA was isolated from the treated cells with a QIAamp DNA mini kit (Qiagen). The DNA samples were diluted to 3 ng/μl for use in PCR reactions. PCR products were quantified using the Quant-iT Picogreen dsDNA Assay kit (Invitrogen). The relative amplification of the large band was normalized to untreated cells. The amplification of the small mitochondrial band was used to normalize the data obtained from the large band to account for mitochondrial DNA copy number.

[6] = test system: ARPE-19 cells; assay: GSH assay (Promega GSH/GSSG-Glo); format: cell-based, human; conditions: 1 mM for 24 hours
Experimental: The production of cellular GSH levels upon exposure to drugs were measured using the GSH assay kit. NACA and GSH-EE were used as controls in this assay. ARPE-19 cells were grown in white 96 well plates. The cells were exposed to 1 mM solutions of NAC, NACME, NACEE, NACPE, NACBE, NACA and glutathione ethyl ester (GSH-EE) for 24 hours. The solutions were removed and washed with PBS once. Afterwards, GSH assay was carried out according to manufacturer recommended protocol (Promega GSH/GSSG-Glo™) and luminescence readings were obtained with a luminometer, which a higher luminescence intensity indicates a higher GSH concentration.

[7] = test system: ARPE-19 cells; assay: ZO-1 staining of cellular junctions; format: cell-based, human
Experimental: ARPE-19 cells were grown on an 8-well slide until confluent. The cells were exposed to 1 mM NAC and NACBE for 24 hours, followed by treatment with 500 μM of HQ for 2 hours. The cells were washed with 3 cycles of PBS, and then fixed with 4% Paraformaldehyde at 4° C. for 30 mins. After fixation the cells were blocked in PBST (0.2% Triton X-100)+1% BSA for 60 mins. Primary antibody (rabbit anti-Zo-1, Invitrogen) was diluted 1/100 in PBST+1% BSA and added overnight at […]. Cells were washed ×3 with PBS and secondary antibody (Donkey anti-Rabbit AF-555, Abcam) was added for 4 hours at RT. Cells were washed ×3 with PBS and mounted with Prolong Diamond Mountant with DAPI (Invitrogen).

[8] = test system: ARPE-19 cells; assay: HPLC analysis of cellular uptake and conversion to NAC; format: in vitro ADME, human; conditions: 1 mM for 1 hour in HBSS
Experimental: ARPE-19 cells were seeded onto a 60 cm^2 dish and was allowed to grow to confluency. The cells were treated with 1 mM NAC and NACBE for 1 hour in HBSS. The drug solution was aspirated and washed twice with HBSS. The cells were scraped with the aid of methanol (˜1 mL) and collected into 2 mL centrifuge tubes. The cell suspension in methanol was sonicated (for cell lysis) in a water bath for 30 minutes and was centrifuged at 14,000 RPM for 15 minutes. The supernatant was transferred to a HPLC vial and methanol was evaporated under a stream of nitrogen.
The sample was resuspended in 50 μL of methanol before injecting into the HPLC system. Samples and standard (20 μL) were injected with an autosampler. Separation was conducted by 0.8 mL/min gradient elution with a water/0.10% formic acid and acetonitrile mobile phase on a 250×4.6-mm ([…]) C18 column (Restek, Pinnacle II) maintained at 25° C. The samples were monitored at 205 nm with a UV detector and analyzed with Agilent Chemstation software.

[9] = test system: ARPE-19 cells; assay: JC-1 staining (confocal); conditions: 1 mM pretreatment for 24 hours, then 50 μM HQ for 4 hours
From the text: The cells were imaged on the confocal (Zeiss LSM 800) by excitation with the 488 nm laser and emission imaged at 530 nm (green channel) and 590 nm (red channel).

Q: Which viability at 16 h, 500 μM [1] does the source give for Oc1ccc(O)cc1 [HQ, hydroquinone] here?
A: The viability at 16 h, 500 μM was ~60%.

Q: What about the “non-lethal HQ doses” value ([2]; human, 16 h) of the same molecule?
A: Its value is “less than 400 μM”.

Q: And the “mitochondrial depolarization (590 nm/530 nm fluorescence)” value [3]?
A: Its value is “moderate depolarization”.

Q: What about the “level of ATP” value ([4]; 500 μM HQ for 3, 6 and 8 hours) of the same molecule?
A: Its value is “the level of ATP decreased”.

Q: What about the “amplification of mitochondrial DNA” value ([5]; 500 uM HQ for 24 hours) of the same molecule?
A: The value was “drastically reduced the amplification of mitochondrial DNA”.

Q: For CCCOC(=O)[C@H](CS)NC(C)=O [NACPE, N-acetylcysteine propyl ester], which “cellular GSH level (luminescence) compared to untreated cells” value [6] is on record?
A: Its value is “produced the highest amounts of GSH”.

Q: With CCOC(=O)[C@H](CS)NC(C)=O [NACEE, N-acetylcysteine ethyl ester] as the molecule, how does the “cellular GSH level (luminescence) compared to untreated cells” value [6] read?
A: The value was “produced the highest amounts of GSH”.

Q: Which “concentration needed for 100% cell viability relative to NACBE” value ([2]; NAC 0.5 mM versus NACBE 0.05 mM) does the source give for CC(=O)N[C@@H](CS)C(=O)O [NAC, N-acetylcysteine] here?
A: Its value is 10 ×.

Q: And the “pretreatment concentration at which 100% cell viability was obtained” value ([2]; pretreatment 0.001-1.0 mM for 24 hours, then 500 μM HQ for 16 hours)?
A: The value was 0.5 mM.

Q: What about the “ZO-1 staining of cell-cell junctions” value ([7]; 1 mM for 24 hours, without HQ) of the same molecule?
A: Its value is “proper cell-cell junctions”.

Q: And the “ZO-1 staining of cellular junctions after exposure to HQ” value ([7]; 1 mM pretreatment for 24 hours, then 500 μM HQ for 2 hours)?
A: Its value is “diminished or was completely absent”.

Q: What about the “compound and metabolite detected within the cells by HPLC” value [8] of the same molecule?
A: The value was “no NAC was detected”.

Q: And the “cellular GSH level (luminescence) compared to untreated cells” value [6]?
A: The value was “did not produce any significant GSH”.

Q: What about the “ATP production after HQ insult” value ([4]; 1 mM pretreatment, then 500 μM HQ for 3, 6 and 8 hours) of the same molecule?
A: Its value is “some protection”.

Q: And the “protection of mitochondrial DNA amplification against HQ” value ([5]; pretreatment for 24 hours (1 mM), then 500 uM HQ for 24 hours)?
A: Its value is “did not show any signs of protection”.

Q: What about the “mitochondrial membrane potential after HQ (JC-1 staining)” value [9] of the same molecule?
A: The value was “did not help to retain mitochondrial depolarization”.

Q: Which “cellular GSH level (luminescence) compared to untreated cells” value [6] does the source give for CC(=O)N[C@@H](CS)C(N)=O here?
A: The value was “did not produce any significant GSH”.

Q: For CCOC(=O)CNC(=O)[C@H](CS)NC(=O)CC[C@H](N)C(=O)O [GSH-EE, glutathione ethyl ester], which “cellular GSH level (luminescence) compared to untreated cells” value [6] is on record?
A: Its value is “did not produce any significant GSH”.
